# Columns and labels:
# [1] = tested on: G93A cells (VSC 4.1, mutant human Cu/Zn SOD-1); assay: DAPI staining to evaluate apoptosis by GSNO; assay type: cell-based; conditions: 500 μM GSNO, 24 h
# Procedure: (§1) DAPI staining to evaluate apoptosis by GSNO and its results; 4′,6-Diamidino-2-phenylindole dihydrochloride (DAPI) staining was performed to evaluate apoptosis as follows. After differentiation, the wildtype (control), G93A, and A4V cells were incubated with without 500 μM GSNO for 24 h; the cells were then centrifuged at 265 g for 2 min, and 4% neutral buffered formalin (100 μL) was added to the cell pellet. A 50 μL aliquot of the cell suspension was applied to a glass slide and dried at room temperature. The fixed cells were washed in PBS, air dried, and stained for 20 min with the DNA-specific fluorochrome, DAPI (Sigma, Saint Louis, Mo., USA). The adhered cells were rinsed with PBS, air dried, and mounted with 90% glycerol. The slides were observed under Olympus fluorescence microscopy(pictures).
# [2] = tested on: A4V cells (VSC 4.1, mutant human Cu/Zn SOD-1); assay: DAPI staining to evaluate apoptosis by GSNO; assay type: cell-based; conditions: 500 μM GSNO, 24 h
# Procedure: as §1
# [3] = tested on: wild type cells (VSC 4.1, wild type human Cu/Zn SOD-1); assay: DAPI staining to evaluate apoptosis by GSNO; assay type: cell-based; conditions: 500 μM GSNO, 24 h
# Procedure: as §1
# in vitro = conditions: rat/mouse hybrid
# Procedure: To evaluate the anti-apoptotic effect of solubilized UDCA against GSNO on wild type cells and cells containing G93A and A4V mutations in hSOD1, wildtype cells, G93A cells, and A4V cells were incubated with 500 μM GSNO for 24 h in order to induce apoptosis and then cell viability of was determined. These apoptosis-induced wildtype cells, G93A cells, and A4V cells were next incubated with 20 μM of solubilized UDCA for 24 h and cell viability was determined again using both the MTT assay and Trypan blue staining.
# Cell culture: VSC 4.1. […]
# MTT assay and trypan blue staining to evaluate the anti-apoptotic effects of solubilized UDCA and its results; 3-(4,5-dimethylthiazol-2-yl)-2,5-diphenyltetrazolium bromide (MTT) is absorbed into cells and converted to formazan by the action of mitochondrial succinate dehydrogenase. […] Finally, optical density (OD) was read at 540 nm on the ELISA plate reader after particles in the well were dissolved by a microplate mixer for 10 min. Results were calibrated using OD measured without cell culture. […] Unstained live cells were counted on a haemocytometer. Cell viability was expressed as percentages of the cell survival.
# [4] = protonated form; cited from earlier work
# [5] = oral administration; cited from earlier work
compound,measurement,setting,value
"N[C@@H](CCC(=O)N[C@@H](CSN=O)C(=O)NCC(=O)O)C(=O)O [GSNO, S-nitrosoglutathione]",percent of apoptotic cells,[1],19%
same,percent of apoptotic cells,[2],25%
same,percent of apoptotic cells,[3],8%
same,"viability at 24 h, 500 μM",in vitro,81%
"C[C@H](CCC(=O)NCCS(=O)(=O)O)[C@H]1CC[C@H]2[C@@H]3[C@@H](O)C[C@@H]4C[C@H](O)CC[C@]4(C)[C@H]3CC[C@]12C [TUDCA, tauroursodeoxycholic acid]",solubility,[4],450 µM
"C[C@H](CCC(=O)O)[C@H]1CC[C@H]2[C@@H]3[C@@H](O)C[C@@H]4C[C@H](O)CC[C@]4(C)[C@H]3CC[C@]12C [UDCA, Ursodeoxycholic acid]",solubility,[4],about 0.05 mM
same,fraction of an ingested dose absorbed in the colon,[5],20%
